Source: patent publication EP4810038A1, “METHOD FOR TREATING ALK-POSITIVE OR ROS1-POSITIVE NON-SMALL CELL LUNG CANCER” (Shenzhen TargetRx Co., Ltd., priority 2023, dated 2025)
Where “and” joins values, the source holds several entries; their conditions need not be identical. Equal values may be shown once. Entries after “also recorded” stand apart in the source; their conditions may differ.

Tested on: ALK-positive advanced NSCLC
Experiment: Phase I clinical trial, indication expansion phase: efficacy in ALK-positive patients (group A cohort 1: prior crizotinib only; cohort 2: prior second-generation ALK inhibitor; group C: ALK inhibitor naive)
Format: in vivo, human
Procedure: The anti-tumor efficacy is evaluated according to RECIST version 1.1. For patients initially evaluated as having a complete response (CR) or partial response (PR), efficacy should be confirmed at least 4 weeks later. In the patients with asymptomatic central nervous system (CNS) metastases, in addition to evaluating 5 extracranial target lesions, up to 5 intracranial target lesions will also be evaluated. The specific indicators are as follows:
"ORR" includes CR and PR, and is defined as the proportion of patients who achieve complete response or partial response.
"IC-ORR" includes CR or PR for confirmed intracranial lesions, and is defined as the proportion of the patients with complete response or partial response of intracranial lesions among the patients with intracranial lesions.
"DCR" is defined as the proportion of the patients who achieve response (PR+CR) and stable disease (SD) after a treatment.
"IC-DCR" is defined as the proportion of the patients who achieve intracranial response (PR+CR), intracranial stable disease (SD), and […] after a treatment among the patients with intracranial lesions.
"DOR" is defined as the time from the first assessment of CR or PR to progressive disease or death, and is only applicable to the patients who achieve response.
"IC-DOR" is defined as the time from the first assessment of intracranial CR or intracranial PR to progressive disease or death, and is only applicable to the patients whose intracranial lesions achieve response.
"TTR" is defined as the time from patient enrollment (first dose of investigational drug) to tumor response (CR/PR), based on the patients with objective response.
"IC-TTR" is defined as the time from patient enrollment (first dose of investigational drug) to intracranial tumor response (IC-CR/PR), based on the patients with intracranial objective response.
"PFS" is defined as the time from the first administration of the investigational drug to progressive disease (PD) or death from any cause, whichever comes first.
In the indication expansion phase, an appropriate administration regimen was determined based on the safety, tolerability, PK and efficacy data from the dose escalation phase and dose expansion phase, and the expansion was performed within the target population.
The result of a pregnancy test conducted ≤7 days prior to the first administration of the investigational drug must be negative for the women of childbearing age.

[1] = A cohort 2, prior 3 or more second-generation ALK inhibitors, chemotherapy (N=11)
[2] = A cohort 2, prior 3 or more second-generation ALK inhibitors, no chemotherapy (N=7)
[3] = A cohort 2, prior one second-generation ALK inhibitor, chemotherapy (N=14)
[4] = A cohort 2, prior one second-generation ALK inhibitor, no chemotherapy (N=26)
[5] = A cohort 2, prior two second-generation ALK inhibitors, chemotherapy (N=15)
[6] = A cohort 2, prior two second-generation ALK inhibitors, no chemotherapy (N=24)
[7] = intracranial measurable lesions, Group A, cohort 1 (n=4)
[8] = intracranial measurable lesions, Group A, cohort 2 (n=27)
[9] = intracranial measurable lesions, Group C (n=8)
[10] = intracranial measurable lesions, In total (ALK-positive) (n=52)
[11] = systemic, Group A, cohort 1 (n=14)
[12] = systemic, Group A, cohort 2 (n=97)
[13] = systemic, In total (ALK-positive) (n=144)

[2H]C([2H])([2H])n1nc2c(c1C#N)-c1cnc(N)c(c1)O[C@H](C)c1cc(F)ccc1C(=O)N(C)C2 [compound A, (10R)-7-amino-12-fluoro-2-(methyl-d3)-10,16-dimethyl-15-oxo-10,15,16,17-tetrahydro-2H-8,4-(metheno)pyrazolo[4,3-h][2,5,11]benzoxadiazacyclotetradecine-3-carbonitrile]
ORR (14 patients previously received crizotinib with or without chemotherapy): 71.4%
ORR (33 ALK TKI-treatment naive patients): 84.8%
overall ORR (97 patients previously received a second-generation TKI): 39.2%
BOR CR [1]: 0 n (%)
BOR NE [1]: 0 n (%)
BOR PD [1]: 1 (9.1) n (%)
BOR PR [1]: 3 (27.3) n (%)
BOR SD [1]: 7 (63.6) n (%)
Confirmed ORR (95% CI) [1]: 3 (27.3) (6.0, 61.0) n (%)
DCR (95% CI) [1]: 10 (90.9) (58.7, 99.8) n (%)
Median TTR (range) [1]: 1.35 (1.28, 7.00) months
BOR CR [2]: 0 n (%)
BOR NE [2]: 1 (14.3) n (%)
BOR PD [2]: 0 n (%)
BOR PR [2]: 3 (42.9) n (%)
BOR SD [2]: 3 (42.9) n (%)
Confirmed ORR (95% CI) [2]: 3 (42.9) (9.9, 81.6) n (%)
DCR (95% CI) [2]: 6 (85.7) (42.1, 99.6) n (%)
Median TTR (range) [2]: 1.35 (1.35, 1.45) months
BOR CR [3]: 0 n (%)
BOR NE [3]: 1 (7.1) n (%)
BOR PD [3]: 4 (28.6) n (%)
BOR PR [3]: 6 (42.9) n (%)
BOR SD [3]: 3 (21.4) n (%)
Confirmed ORR (95% CI) [3]: 6 (42.9) (17.7, 71.1) n (%)
DCR (95% CI) [3]: 9 (64.3) (35.1, 87.2) n (%)
Median TTR (range) [3]: 2.07 (1.35, 6.90) months
BOR CR [4]: 0 n (%)
BOR NE [4]: 0 n (%)
BOR PD [4]: 6 (23.1) n (%)
BOR PR [4]: 9 (34.6) n (%)
BOR SD [4]: 11 (42.3) n (%)
Confirmed ORR (95% CI) [4]: 9 (34.6) (17.2, 55.7) n (%)
DCR (95% CI) [4]: 20 (76.9) (56.4, 91.0) n (%)
Median TTR (range) [4]: 1.38 (1.28, 6.80) months
BOR CR [5]: 0 n (%)
BOR NE [5]: 0 n (%)
BOR PD [5]: 2 (13.3) n (%)
BOR PR [5]: 6 (40.0) n (%)
BOR SD [5]: 7 (46.7) n (%)
Confirmed ORR (95% CI) [5]: 6 (40.0) (16.3, 67.7) n (%)
DCR (95% CI) [5]: 13 (86.7) (59.5, 98.3) n (%)
Median DOR (95% CI) [5]: 12.45 (5.39, -) months
Median TTR (range) [5]: 1.40 (1.31, 2.79) months
BOR CR [6]: 0 n (%)
BOR NE [6]: 0 n (%)
BOR PD [6]: 3 (12.5) n (%)
BOR PR [6]: 11 (45.8) n (%)
BOR SD [6]: 10 (41.7) n (%)
Confirmed ORR (95% CI) [6]: 11 (45.8) (25.6, 67.2) n (%)
DCR (95% CI) [6]: 21 (87.5) (67.6, 97.3) n (%)
Median DOR (95% CI) [6]: 12.48 (2.76, -) months
Median TTR (range) [6]: 1.38 (1.35, 9.72) months
intracranial ORR (ALK TKI-naive, 8 patients with measurable CNS lesions at baseline): 75%
median PFS (cohort 2 of group A, FAS, as of April 17, 2024): 6.87 months
BOR CR [7]: 1 n (%) and 1 (25.0) n (%)
BOR NE [7]: 0 n (%)
BOR PD [7]: 0 n (%)
BOR PR [7]: 1 n (%) and 1 (25.0) n (%)
BOR SD [7]: 2 (50.0) n (%)
Confirmed ORR (95% CI) [7]: 2 (50.0) (6.8, 93.2) n (%)
DCR (95% CI) [7]: 4 (100) (39.8, 100.0) n (%)
Median DOR (95% CI) [7]: not reached; also recorded: NR (NR, NR)
Median TTR (range) [7]: 1.36 months and 1.36 (1.35, 1.38) months
BOR CR [8]: 5 n (%) and 5 (18.5) n (%)
BOR NE [8]: 1 (3.7) n (%)
BOR PD [8]: 0 n (%)
BOR PR [8]: 14 n (%) and 14 (51.9) n (%)
BOR SD [8]: 7 (25.9) n (%)
Confirmed ORR (95% CI) [8]: 19 (70.4) (49.8, 86.2) n (%)
DCR (95% CI) [8]: 26 (96.3) (81.0, 99.9) n (%)
Median DOR (95% CI) [8]: 17.97 months and 17.97 (6.64, NR) months
Median TTR (range) [8]: 1.41 months and 1.41 (1.31, 9.72) months
BOR CR [9]: 0 n (%)
BOR NE [9]: 0 n (%)
BOR PD [9]: 0 n (%)
BOR PR [9]: 6 n (%) and 6 (75.0) n (%)
BOR SD [9]: 2 (25.0) n (%)
Confirmed ORR (95% CI) [9]: 6 (75.0) (34.9, 96.8) n (%)
DCR (95% CI) [9]: 8 (100) (63.1, 100) n (%)
Median DOR (95% CI) [9]: not reached; also recorded: NR (4.17, NR)
Median TTR (range) [9]: 1.41 months and 1.41 (1.35, 1.45) months
BOR CR [10]: 6 (11.5) n (%)
BOR NE [10]: 2 (3.8) n (%)
BOR PD [10]: 1 (1.9) n (%)
BOR PR [10]: 24 (46.2) n (%)
BOR SD [10]: 19 (36.5) n (%)
Confirmed ORR (95% CI) [10]: 30 (57.7) (43.2, 71.3) n (%)
DCR (95% CI) [10]: 49 (94.2) (84.1, 98.8) n (%)
Median DOR (95% CI) [10]: 17.97 (17.97, -) months
Median TTR (range) [10]: 1.40 (1.31, 9.72) months
intracranial ORR (prior crizotinib, four patients with measurable CNS lesions at baseline): 50.0%
IC-ORR (prior second-generation TKI, 27 patients with measurable CNS lesions at baseline): 70.4%
BOR CR [11]: 0 n (%)
BOR NE [11]: 0 n (%)
BOR PD [11]: 0 n (%)
BOR PR [11]: 10 n (%) and 10 (71.4) n (%)
BOR SD [11]: 4 n (%) and 4 (28.6) n (%)
Confirmed ORR (95% CI) [11]: 10 (71.4) (41.9, 91.6) n (%)
DCR (95% CI) [11]: 14 (100) (76.8, 100.0) n (%)
Median DOR (95% CI) [11]: not reached; also recorded: NR (5.585, NR)
Median TTR (range) [11]: 2.71 months and 2.71 (1.25, 9.66) months
BOR CR [12]: 0 n (%)
BOR NE [12]: 2 (2.1) n (%)
BOR PD [12]: 16 (16.5) n (%)
BOR PR [12]: 38 (39.2) n (%)
BOR SD [12]: 41 (42.3) n (%)
Confirmed ORR (95% CI) [12]: 38 (39.2) (29.4, 49.6) n (%)
DCR (95% CI) [12]: 79 (81.4) (72.3, 88.6) n (%)
Median DOR (95% CI) [12]: 12.48 months and 12.48 (12.45, NR) months
Median TTR (range) [12]: 1.38 months and 1.38 (1.28, 9.72) months
BOR CR (systemic, Group C (n=33)): 0 n (%)
BOR NE (systemic, Group C (n=33)): 0 n (%)
BOR PD (systemic, Group C (n=33)): 1 (3.0) n (%)
BOR PR (systemic, Group C (n=33)): 28 n (%) and 28 (84.8) n (%)
BOR SD (systemic, Group C (n=33)): 4 n (%) and 4 (12.1) n (%)
Confirmed ORR (95% CI) (systemic, Group C (n=33)): 28 (84.8) (68.1, 94.9) n (%)
DCR (95% CI) (systemic, Group C (n=33)): 32 (97.0) (84.2, 99.9) n (%)
Median DOR (95% CI) (systemic, Group C (n=33)): not reached; also recorded: NR (9.69, NR)
Median TTR (range) (systemic, Group C (n=33)): 1.35 months and 1.35 (1.12, 4.21) months
BOR CR [13]: 0 n (%)
BOR NE [13]: 5 (2.9) n (%)
BOR PD [13]: 21 (12.3) n (%)
BOR PR [13]: 84 (49.1) n (%)
BOR SD [13]: 61 (35.7) n (%)
Confirmed ORR (95% CI) [13]: 84 (49.1) (41.4, 56.9) n (%)
DCR (95% CI) [13]: 145 (84.8) (78.5, 89.8) n (%)
Median DOR (95% CI) [13]: 12.48 (12.45, -) months
Median TTR (range) [13]: 1.38 (1.12, 13.96) months
